This note sets out measurements from patent US20140056811A1, “NEW CELL-PENETRATING PEPTIDES AND USES THEREOF” (COMPUGEN LTD., priority 2010, published 2014).

One data set concerns HeLa cells. It is filed as cell-based. To be noted: for cell viability (MTT), FIG. 7: 26.6 ug/ml and 8.88 ug/ml, 16 hours, normalized by untreated cells; for dose response of cell viability (MTT), FIG. 8: average of duplicates. As to the method: In order to examine CPPs capability to deliver into the cell a cargo, the ability of the CPPs to facilitate intracellular cargo delivery of a pro apoptotic peptide—klaklakklaklak (also referred herein as (klaklak)2), was examined. (klaklak)2 is unable to efficiently penetrate cell membranes on its own, and thus using this pro-apoptotic peptide requires efficient intracellular delivery to trigger mitochondrial disruption and mitochondrial-dependent apoptosis. HeLa cells were seeded in DMEM supplemented with 10% fetal Bovine serum (FBS) in 96-well plates, 10,000 cells/well in a total volume of 200 μL 24 hours prior to their treatment with the peptide. Cells were incubated with any one of the CPPs and/or any one of the control peptides ([…]) conjugated to pro-apoptotic peptide (klaklak)2 through a short flexible linker of Gly-Gly (as described in the above peptide synthesis section for SEQ ID NOs: 24-32) for 16 hours under tissue culture conditions. Cell viability was then assessed using MTT[3-(4,5-dimethylthiazol-2-yl)-2,5-diphenyl-2H-tetrazo-liumbromide] assay (Catalog number M5655, Sigma, Israel). MTT reagent was added to cells for 4 hours, following cell lysis using DMSO and absorbance was measured at 492 nm. As positive controls (klaklak)2 conjugated to TAT or R9 were used, corresponding to SEQ ID NOs:26 and 25, respectively. As negative controls (klaklak)2 on its own (SEQ ID NO:31), (klaklak)2 conjugated to N5 ([…]) and peptides not conjugated to (klaklak)2 were used.

Data set [1] in a line: In vitro cytotoxicity by LDH (lactate dehydrogenase) analysis. To be noted: human; 5-FAM labeled peptides, 10 uM (also stated 10 ug/ml), 1 h, 37° C., HeLa cells; read-out: LDH % cytotoxicity. It is filed as cell-based. As to the method: In order to assess the in vitro cytotoxicity of the peptides, an LDH (lactate dehydrogenase) analysis was carried out, using LDH kit (Promega G1782), according to manufacturer instructions.
Briefly, HeLa cells from 5 ml of confluent T75 flask were seed in 96 well plate at 10×10^4 cells/mL in 0.1 ml DMEM supplied with 10% Fetal Calf Serum. After 24 hrs incubation with growth medium, wells were replaced with Serum Free growth medium for 24 hrs, and then cells were washed with OptiMEM and replaced with 0.1 ml peptide solution at 10 uM for 1 h at 37° C. 50 ul of supernatant were transferred to the new plate and detected according to Cyto Tox 96, Non Radioactive cytotoxicity assay, (LDH kit Promega G1782). Table 5 presents the results of in vitro cytotoxicity measurements by LDH for S22, S24, S36 and S40 peptides and two positive control peptides; Tat(47-57) and R9. LDH experiment was done with fluorescent labeled (5-FAM) peptides in concentration of […] and the % of cytotoxicity was measured by LDH levels.

Read-outs that look alike come from different tables or passages of the source. Square brackets hold non-standard residues; d marks the D form. Ends that are not written are not given here. Peptide text beside a SMILES is read from it. * marks the point of attachment. 5FAM = O=C1OC2(c3ccc(O)cc3Oc3cc(O)ccc32)c2ccc(C(=O)*)cc21

With `CC(=O)N[C@@H](CCCCN)C(=O)N[C@@H](CCCCN)C(=O)N[C@H](C(=O)N[C@@H](CC(C)C)C(=O)N[C@@H](CCCCN)C(=O)N[C@@H](CCCCN)C(=O)N[C@@H](CC(C)C)C(=O)N[C@@H](Cc1c[nH]c2ccccc12)C(=O)N[C@@H](CCCCN)C(=O)N[C@@H](CCCCN)C(=O)N[C@@H](CCCCN)C(=O)N[C@@H](CCCCN)C(=O)N[C@@H](CCCNC(=N)N)C(=O)N[C@@H](CCCCN)C(=O)NCC(=O)NCC(=O)N[C@H](CCCCN)C(=O)N[C@H](CC(C)C)C(=O)N[C@H](C)C(=O)N[C@H](CCCCN)C(=O)N[C@H](CC(C)C)C(=O)N[C@H](C)C(=O)N[C@H](CCCCN)C(=O)N[C@H](CCCCN)C(=O)N[C@H](CC(C)C)C(=O)N[C@H](C)C(=O)N[C@H](CCCCN)C(=O)N[C@H](CC(C)C)C(=O)N[C@H](C)C(=O)N[C@H](CCCCN)C(N)=O)[C@@H](C)O` [S24-klaklak, KKTLKKLWKKKKRKGG-klaklakklaklak] (Ac-KKTLKKLWKKKKRKGG[dK][dL][dA][dK][dL][dA][dK][dK][dL][dA][dK][dL][dA][dK]-NH2), the “cell viability (MTT), FIG. 7” value in the data set on HeLa cells (HeLa cells) is reported as “reduction in cell viability”. Also, the concentration for a half-maximal effect (EC50) (as a rule, the concentration giving half of the maximal effect) with HeLa cells (16 hr, HeLa cells, unit only from the X axis (log uM concentration), read-out: EC50 of cell viability (MTT), FIG. 9) stood at 8.45 µM.

On to “KPSARMLLLKGFGKGG-klaklakklaklak (Ac-KPSARMLLLKGFGKGG[dK][dL][dA][dK][dL][dA][dK][dK][dL][dA][dK][dL][dA][dK]-NH2) [S8-klaklak, S8 conjugated to (klaklak)2 with GG linker]”, for which the “cell viability (MTT), FIG. 7” value with HeLa cells (HeLa cells) was “reduction in cell viability”.

On to `CC(C)C[C@H](NC(=O)[C@H](CCCCN)NC(=O)[C@H](CCCCN)NC(=O)[C@H](CC(C)C)NC(=O)[C@@H](NC(=O)[C@H](CCCCN)NC(=O)[C@H](CCCCN)NC(=O)c1ccc2c(c1)C(=O)OC21c2ccc(O)cc2Oc2cc(O)ccc21)[C@@H](C)O)C(=O)N[C@@H](Cc1c[nH]c2ccccc12)C(=O)N[C@@H](CCCCN)C(=O)N[C@@H](CCCCN)C(=O)N[C@@H](CCCCN)C(=O)N[C@@H](CCCCN)C(=O)N[C@@H](CCCNC(=N)N)C(=O)N[C@@H](CCCCN)C(N)=O` [S24, KKTLKKLWKKKKRK] (5FAM-KKTLKKLWKKKKRK-NH2), for which, in data set [1], the cytotoxicity at 1 h, 10 µM came out at 10%.

As for “RRRRRRRRRGG-klaklakklaklak (RRRRRRRRRGG[dK][dL][dA][dK][dL][dA][dK][dK][dL][dA][dK][dL][dA][dK]) [R9-klaklak, positive control R9 conjugated to (klaklak)2 with GG linker, reference compound]”, the “dose response of cell viability (MTT), FIG. 8” value (“dose response of cell viability” for short) in the data set on HeLa cells (16 hr, HeLa cells) is on record as “effective dose response curve”.

On to “VATIKSVSFYTRKGG-klaklakklaklak (Ac-VATIKSVSFYTRKGG[dK][dL][dA][dK][dL][dA][dK][dK][dL][dA][dK][dL][dA][dK]-NH2) [N2-klaklak, negative control peptide N2 conjugated to (klaklak)2 with GG linker, reference compound]”, for which the “dose response of cell viability” value in the data set with HeLa cells (16 hr, HeLa cells) is “no dose response curve—no effect”.

As for “klaklakklaklak (KLAKLAKKLAKLAK; D-amino acids) [(klaklak)2, pro apoptotic peptide used as cargo, reference compound]”, the “cell viability (MTT), FIG. 7” value in the data set with HeLa cells (HeLa cells) is on record as “almost no reduction in cell viability”.

For the molecule “FLRRRRRFTRQTGG-klaklakklaklak (Ac-FLRRRRRFTRQTGG[dK][dL][dA][dK][dL][dA][dK][dK][dL][dA][dK][dL][dA][dK]-NH2) [S40-klaklak, S40 conjugated to (klaklak)2 with GG linker]”, in the data set on HeLa cells (HeLa cells), the “cell viability (MTT), FIG. 7” value is “reduction in cell viability”.

As to `CC(C)C[C@H](NC(=O)[C@H](Cc1ccccc1)NC(=O)c1ccc2c(c1)C(=O)OC21c2ccc(O)cc2Oc2cc(O)ccc21)C(=O)N[C@@H](CCCNC(=N)N)C(=O)N[C@@H](CCCNC(=N)N)C(=O)N[C@@H](CCCNC(=N)N)C(=O)N[C@@H](CCCNC(=N)N)C(=O)N[C@@H](CCCNC(=N)N)C(=O)N[C@@H](Cc1ccccc1)C(=O)N[C@H](C(=O)N[C@@H](CCCNC(=N)N)C(=O)N[C@@H](CCC(N)=O)C(=O)N[C@H](C(N)=O)[C@@H](C)O)[C@@H](C)O` [S40, FLRRRRRFTRQT] (5FAM-FLRRRRRFTRQT-NH2), in data set [1], the cytotoxicity at 1 h, 10 µM amounted to 8%.

For the molecule `N=C(N)NCCC[C@H](NC(=O)c1ccc2c(c1)C(=O)OC21c2ccc(O)cc2Oc2cc(O)ccc21)C(=O)N[C@@H](CCCNC(=N)N)C(=O)N[C@@H](CCCNC(=N)N)C(=O)N[C@@H](Cc1c[nH]cn1)C(=O)N[C@@H](CCC(N)=O)C(=O)N[C@@H](CCCNC(=N)N)C(=O)N[C@@H](CCCCN)C(=O)N[C@@H](Cc1ccc(O)cc1)C(=O)N[C@@H](CCCNC(=N)N)C(=O)N[C@@H](CCCNC(=N)N)C(=O)N[C@@H](Cc1ccc(O)cc1)C(N)=O` [S36, RRRHQRKYRRY] (5FAM-RRRHQRKYRRY-NH2), the cytotoxicity at 1 h, 10 µM in data set [1] turned out to be 3%.

`CC(=O)N[C@@H](CCCNC(=N)N)C(=O)N[C@@H](CCCNC(=N)N)C(=O)N[C@@H](CCCNC(=N)N)C(=O)N[C@@H](Cc1c[nH]cn1)C(=O)N[C@@H](CCC(N)=O)C(=O)N[C@@H](CCCNC(=N)N)C(=O)N[C@@H](CCCCN)C(=O)N[C@@H](Cc1ccc(O)cc1)C(=O)N[C@@H](CCCNC(=N)N)C(=O)N[C@@H](CCCNC(=N)N)C(=O)N[C@@H](Cc1ccc(O)cc1)C(=O)NCC(=O)NCC(=O)N[C@H](CCCCN)C(=O)N[C@H](CC(C)C)C(=O)N[C@H](C)C(=O)N[C@H](CCCCN)C(=O)N[C@H](CC(C)C)C(=O)N[C@H](C)C(=O)N[C@H](CCCCN)C(=O)N[C@H](CCCCN)C(=O)N[C@H](CC(C)C)C(=O)N[C@H](C)C(=O)N[C@H](CCCCN)C(=O)N[C@H](CC(C)C)C(=O)N[C@H](C)C(=O)N[C@H](CCCCN)C(N)=O` [S36-klaklak, RRRHQRKYRRYGG-klaklakklaklak] (Ac-RRRHQRKYRRYGG[dK][dL][dA][dK][dL][dA][dK][dK][dL][dA][dK][dL][dA][dK]-NH2): in the data set with HeLa cells (HeLa cells), the “cell viability (MTT), FIG. 7” value is listed as “reduction in cell viability”. In addition, in the data set with HeLa cells (16 h), the half-maximal effective concentration (EC50) is 11.2 µM.

As to “YGRKKRRQRRRGG-klaklakklaklak (YGRKKRRQRRRGGKLAKLAKKLAKLAK) [TAT-klaklak, positive control TAT conjugated to (klaklak)2 with GG linker, reference compound]”, in the data set with HeLa cells (16 hr, HeLa cells), the “dose response of cell viability” value is “effective dose response curve”.

`N=C(N)NCCC[C@H](NC(=O)[C@H](CCCNC(=N)N)NC(=O)[C@H](CCCNC(=N)N)NC(=O)[C@H](CCCNC(=N)N)NC(=O)[C@H](CCCNC(=N)N)NC(=O)[C@H](CCCNC(=N)N)NC(=O)[C@H](CCCNC(=N)N)NC(=O)[C@H](CCCNC(=N)N)NC(=O)[C@H](CCCNC(=N)N)NC(=O)c1ccc2c(c1)C(=O)OC21c2ccc(O)cc2Oc2cc(O)ccc21)C(N)=O` [9R, RRRRRRRRR, reference compound]: the cytotoxicity at 1 h, 10 µM in data set [1] amounted to 2%.
